Measured values reported in patent publication US4683292A, “Immunotherapeutic polypeptide agents which bind to lymphocyte immunoglobulin FC receptors” (Immunetech, Inc., priority 1983, dated 1987).
Ends that are not written are not given here. Peptide text beside a SMILES is read from it.

Assays:
[1] = system: systemic allergic disease; conditions: humans, subcutaneous injection; cited from earlier work
[2] = molecular target: T1, IgE Fc receptor of human basophils (Homo sapiens, UniProt P12319); conditions: Plummer et al. 1983; cited from earlier work
T1 construct: host or cells: human basophils
T1 sequence (P12319 26-257): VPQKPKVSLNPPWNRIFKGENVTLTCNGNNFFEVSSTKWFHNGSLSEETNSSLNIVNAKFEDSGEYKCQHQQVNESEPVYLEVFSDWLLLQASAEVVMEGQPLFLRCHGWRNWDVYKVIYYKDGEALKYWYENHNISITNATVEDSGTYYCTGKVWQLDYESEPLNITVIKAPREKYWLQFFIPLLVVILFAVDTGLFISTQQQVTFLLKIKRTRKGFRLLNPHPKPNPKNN
T1 sequence (Q01362 1-244 partner): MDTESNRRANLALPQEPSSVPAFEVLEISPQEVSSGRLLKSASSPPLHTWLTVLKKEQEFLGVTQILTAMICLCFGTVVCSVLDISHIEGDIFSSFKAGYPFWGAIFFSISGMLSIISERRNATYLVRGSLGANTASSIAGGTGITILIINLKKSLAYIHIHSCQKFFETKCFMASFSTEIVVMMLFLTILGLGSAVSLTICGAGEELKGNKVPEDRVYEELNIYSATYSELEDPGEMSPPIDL
T1 sequence (P30273 19-86 partner): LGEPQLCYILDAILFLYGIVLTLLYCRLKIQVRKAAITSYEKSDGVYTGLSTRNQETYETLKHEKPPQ

rodent mast cells = conditions: Stanworth et al. 1979; cited from earlier work
human mast cells = conditions: Stanworth et al. 1979; cited from earlier work
[3] = system: human monocyte IgG Fc receptors; conditions: Ciccimarra et al. 1975; Ratcliffe and Stanworth 1982; cited from earlier work
[4] = system: MONOCYTE/MACROPHAGE Fc Receptor IgG; test: Rosette inhibition assay, IgG-coated ox erythrocytes, monocytes / U937; assay type: binding, human; conditions: relative to intact monomeric myeloma protein at equal concentration; 15 min preincubation
Procedure: (§1) The Fc receptor blocking activity of the subject peptides was assessed using well established techniques and procedures. In particular, a rosette assay was employed which uses either monomeric, chemically or heat aggregated human IgG or IgE obtained from human myeloma sera. (Gonzalez-Molina, et al., J. Clin. Invest., 59, 616 (1977); Spiegelberg, et al. in Immunoassays: Clinical Laboratory Techniques for the 1980's (Alan R. Liss: New York, 1980), pp. 287-300). The IgG or IgE is then adsorbed to ox-erythrocytes which has been previously treated with trypsin and pyruvic aldehyde. […] Addition of inhibitor myeloma proteins or inhibitor peptides produced a reproducable reduction of rosette formation, […], phosphate buffered isotonic saline, was used alone as control and then multiplying the calculated quotient by 100.
(§2) Table 1 presents the inhibition observed by representative peptide inhibitors calculated as a percentage of the inhibition observed with intact, monomeric myeloma proteins. […]

BASOPHIL Fc Receptor IgG = test: Rosette inhibition assay, IgG-coated ox erythrocytes, basophils; assay type: binding, human; conditions: relative to intact monomeric myeloma protein at equal concentration; 15 min preincubation
Procedure: as §1, §2

[5] = system: NEUTROPHIL (PMN) Fc Receptor IgG; test: Rosette inhibition assay, IgG-coated ox erythrocytes, fresh human PMNs; assay type: binding; conditions: relative to intact monomeric myeloma protein at equal concentration; 15 min preincubation
Procedure: as §1, §2

[6] = system: granulocytes, monocytes and macrophages; conditions: in vitro; cited from earlier work

In the case of “Asp-Ser-Asp-Pro-Arg (DSDPR; printed: Asp-Ser-Asp-Pro-Arg) [pentapeptide derived from human IgE Cε 3 at aa 320-324]”, the “inhibition of systemic allergic disease” value [1] is listed as “inhibit systemic allergic disease” and the “blocking of human IgE binding to basophil IgE Fc receptors” value [2] is listed as “up to 70%”.

For “PRKTKGSGFFVF [portion of Cε 4 of human IgE, aa 495-506]”, the “degranulation of mast cells” value (rodent mast cells) is listed as “cause degranulation” and the “degranulation of mast cells” value (human mast cells) is listed as “cause degranulation”.

In the case of “QYDSTYR [heptapeptide identical to IgG aa 295-301]”, the “blocking of IgG binding to human monocyte IgG Fc receptors” value [3] is given as “slightly block”.

For `CC(=O)N[C@@H](CCC(N)=O)C(=O)N1CCC[C@H]1C(=O)N[C@@H](CCC(=O)O)C(=O)N[C@@H](CC(N)=O)C(=O)O` [Ac--Gln--Pro--Glu--Asn, Ac-Gln-Pro-Glu-Asn] (Ac-QPEN-OH), the “Rosette inhibition expressed as percent inhibition by monomeric IgG, monocyte/macrophage Fc receptor IgG” value [4] was 19%, the “Rosette inhibition expressed as percent inhibition by monomeric IgG, basophil Fc receptor IgG” value (BASOPHIL Fc Receptor IgG) was 74% and the “Rosette inhibition expressed as percent inhibition by monomeric IgG, neutrophil (PMN) Fc receptor IgG” value [5] was 95%.

In the case of “Gly-Gln-Pro-Arg (GQPR; printed: Gly-Gln-Pro-Arg) [Rigin, tetrapeptide analogue of Tuftsin]”, the stimulation of phagocytosis [6] is listed as “phagocytosis-stimulating abilities similar to those of Tuftsin”.
